The results in this text go back to patent publication US20050176764A1, “Medicine for treating cancer” (KOWA CO., LTD, priority 2002, published 2005).

Counter-ions that a name gives are not always drawn.

Common to all, as to assay type: cell-based
Test [1] concerns cultured human cancer cells. As to the kind of experiment: Cancer cell growth inhibition, WST-1 colorimetry, overall statement. To be noted: result in words, 48 hours. On the procedure: (§1) Cultured human cancer cells were added to a 96-well plate. On the following day, a solution of each of the compounds prepared in Examples 13, 23, 29, 36, and 114 (in five concentrations resulting from 10-fold stepwise dilution: 10^−4, 10^−5, 10^−6, 10^−7, or 10^−8 M) was added, followed by incubation for 48 hours. Subsequently, % growth of the cells was measured through colorimetry by use of a WST-1 (Dojindo) reagent for measurement of cell count. From the measurement data, % growth was calculated by use of the following equation, and 50% growth inhibitory concentration (GI50) was calculated from the dose-response curve of each compound: % growth={[(OD as measured after 48 hours from addition of compound)−(OD at time zero)]/[(OD of control as measured after 48 hours)−(OD at time zero)]}×100.

For test [2], the system named is HCT-15 (colon cancer). As to the kind of experiment: Cancer cell growth inhibition, WST-1 colorimetry. To be noted: Homo sapiens, HCT-15, 48 hours. As for the experimental part: as §1
A general note: Tetrazolium assays rely on reduction of a dye to a coloured formazan, in cell work by metabolically active cells.

Test [3] deals with MCF-7 (breast cancer). Put plainly: Cancer cell growth inhibition, WST-1 colorimetry. To be noted: Homo sapiens, MCF7, MCF-7, 48 hours. As for the experimental part:
as §1

Test [4] deals with MKN-74 (stomach cancer). As to the kind of experiment: Cancer cell growth inhibition, WST-1 colorimetry. To be noted: Homo sapiens, MKN-74, 48 hours. On the procedure:
as §1

The test system of test [5] is MKN-45 (stomach cancer). Put plainly: Cancer cell growth inhibition, WST-1 colorimetry. Particulars: Homo sapiens, MKN-45, 48 hours. On the procedure: as §1
Test [6] relates to Human umbilical venous endothelial cells (HUVECs). As to the kind of experiment: Gene expression analysis (GeneChip HuGene FL array) in TNFα-stimulated HUVECs. Particulars: Example 10 at 1 μM, TSA at 10 μM. On the procedure:
Human umbilical venous endothelial cells (HUVECs) were placed in 10 cm dishes (3×10^5 cells/dish). Two days thereafter, Trichostatin A (TSA, produced by Upstate) dissolved in dimethyl sulfoxide (DMSO) and the compound prepared in Example 10 dissolved in DMSO were individually added to a final concentrations of 10 μM and 1 μM, respectively. Each sample was stimulated with TNFα (final concentration: 10 ng/mL, Genzyme-Techne). Four hours later, total RNA was extracted with ISOGEN (Nippon Gene Co., Ltd.). The subsequent procedure was performed in accordance with the manufacturer's protocol (Affymetrix). From the thus obtained total RNA, mRNA was purified by a conventional method. cDNA was synthesized from the purified mRNA, and then biotin-labeled cRNA was synthesized by in vitro transcription. The cRNA was purified and subjected to heat treatment for fragmentation. The fragmented cRNA was used in gene expression analysis.
Method of gene expression analysis: The thus-prepared fragmented cRNA was injected to a HuGene human FL array (Affymetrix), and allowed to hybridize for 16 hours at 45° C. After washing, streptavidin labeled with phycoerythrin, and biotinylated anti-streptavidin antibody were added to each sample in order to cause reaction. Gene expression information was read by use of a dedicated scanner for GeneChip™ (Hewlett Packard). The thus-obtained information was analyzed with GeneChip Software (Affymetrix) for comparison in terms of level of expression.

[7] abbreviates: out of 52 genes increased twice or more by TNFα.

For the compound `COc1cc(-c2cc(CN3CCC(N(Cc4ccnc(-c5cc(OC)c(OC)c(OC)c5)c4)c4ccc5c(c4)OCO5)CC3)ccn2)cc(OC)c1OC` [Example 29, 4-[N-(3,4-methylenedioxyphenyl)-N-[[2-(3,4,5-trimethoxyphenyl)pyridin-4-yl]methyl]amino]-1-[[2-(3,4,5-trimethoxyphenyl)pyridin-4-yl]methyl] piperidine Trihydrochloride], the “growth inhibitory effect on cultured human cancer cells” value (from here on “growth inhibitory effect”) in test [1] was “strong growth inhibitory effect”. Moreover, the GI50 in test [2] was found to be 800 nM; in test [3], 700 nM; in test [4], 400 nM; in test [5], 3000 nM.

With `CC(/C=C/C(=O)NO)=C\[C@@H](C)C(=O)c1ccc(N(C)C)cc1` [TSA, Trichostatin A, reference compound], in test [6] (TNFα 10 ng/mL, 4 h), the “mRNA expression level of ABC transporter B2” value is 66, the “mRNA expression level of B94” value came out at 924, the “mRNA expression level of BCL3” value is listed as 198 and the “mRNA expression level of Cox-2” value is 30. For the same compound, in test [6] (TNFα 10 ng/mL, 4 h), the “mRNA expression level of EphrinA1” value is on record as 113, the “mRNA expression level of Gro1” value is 855, the “mRNA expression level of I kappa B alpha” value was 1363 and the “mRNA expression level of IAP homolog B” value is on record as 99. Also, in test [6] (TNFα 10 ng/mL, 4 h), the “mRNA expression level of ICAM-1” value stood at 2303, the “mRNA expression level of IFNGR2” value is 209, the “mRNA expression level of IL-7R” value was determined as 44 and the “mRNA expression level of M-Ras-regulated GEF” value is 39. In addition, in test [6] (TNFα 10 ng/mL, 4 h), the “mRNA expression level of MCP-1” value was 46, the “mRNA expression level of Na/K-ATPase beta-1” value amounted to 148, the “mRNA expression level of Nef associated factor 1” value was 396 and the “mRNA expression level of OB-cadherin-2” value came out at 62. Further, in test [6] (TNFα 10 ng/mL, 4 h), the “mRNA expression level of RDC1” value was 21, the “mRNA expression level of Spliceosomal Protein Sap 49” value is 79, the “mRNA expression level of TRAF1” value is given as 262 and the “mRNA expression level of VCAM-1” value came to 96. Further, in test [6] (TNFα 10 ng/mL, 4 h), the “mRNA expression level of beta-galactoside alpha-2; 6-sialyltransferase” value was found to be 19, the “mRNA expression level of caspase-like apoptosis regulatory protein 2 (clarp)” value is given as 50, the “mRNA expression level of cytoplasmic antiproteinase 2 (CAP2)” value was determined as 37 and the “mRNA expression level of ets-2” value was 38. In test [6] (TNFα 10 ng/mL, 4 h), the “mRNA expression level of exodus-1” value worked out at 1206, the “mRNA expression level of fractalkine” value is recorded as 38, the “mRNA expression level of junB” value was 123 and the “mRNA expression level of lymphotoxin beta” value is −40. For the same compound, in test [6] (TNFα 10 ng/mL, 4 h), the “mRNA expression level of metalloproteinase stromelysin-2” value stood at 69, the “mRNA expression level of ninjurin1” value worked out at 150 and the “mRNA expression level of p50-NF-kappa B homolog” value was 57. Besides, in test [6] (setting [7]), the “number of genes whose expression was enhanced” value was 6 genes and the “number of genes whose expression was inhibited” value stood at 25 genes.

Regarding `COc1cc(OC)cc(N(Cc2ccnc(-c3cc(OC)c(OC)c(OC)c3)c2)C2CCN(Cc3ccnc(-c4cc(OC)c(OC)c(OC)c4)c3)CC2)c1` [Example 23, 4-[N-(3,5-dimethoxyphenyl)-N-[[2-(3,4,5-trimethoxyphenyl)pyridin-4-yl]methyl]amino]-1-[[2-(3,4,5-trimethoxyphenyl)pyridin-4-yl]methyl]piperidine Trihydrochloride], in test [1], the “growth inhibitory effect” value was “strong growth inhibitory effect”. The GI50 in test [2] is 900 nM; in test [3] it was 600 nM; in test [4], 700 nM; in test [5] it was 4000 nM.

In the case of `COc1cc(-c2cncc(CN(c3ccc(SC)cc3)C3CCN(Cc4ccnc(-c5cc(OC)c(OC)c(OC)c5)c4)CC3)c2)cc(OC)c1OC` [Example 114], the “growth inhibitory effect” value in test [1] was “strong growth inhibitory effect”. For the same compound, the GI50 was determined as 800 nM in test [2], 600 nM in test [3], 200 nM in test [4] and 2000 nM in test [5].

In the case of `COc1cc(-c2cc(CN3CCC(N(C)Cc4ccnc(-c5cc(OC)c(OC)c(OC)c5)c4)CC3)ccn2)cc(OC)c1OC` [Example 36, 4-[N-methyl-N-[[2-(3,4,5-trimethoxyphenyl)pyridin-4-yl]methyl]amino]-1-[[2-(3,4,5-trimethoxyphenyl)pyridin-4-yl]methyl]piperidine Tetrahydrochloride], in test [1], the “growth inhibitory effect” value is reported as “strong growth inhibitory effect”. For the same compound, the GI50 came to 1000 nM in test [2], 700 nM in test [3], 600 nM in test [4] and 2000 nM in test [5].

For the compound `COc1ccc(N(Cc2cncc(-c3cc(OC)c(OC)c(OC)c3)c2)C2CCN(Cc3ccnc(-c4cc(OC)c(OC)c(OC)c4)c3)CC2)cc1` [Example 13, 4-[N-(4-methoxyphenyl)-N-[[5-(3,4,5-trimethoxyphenyl)pyridin-3-yl]methyl]amino]-1-[[2-(3,4,5-trimethoxyphenyl)pyridin-4-yl]methyl]piperidine Trihydrochloride], the “growth inhibitory effect” value in test [1] is reported as “strong growth inhibitory effect”. In addition, the GI50 stood at 800 nM in test [2], 700 nM in test [3], 700 nM in test [4] and 3000 nM in test [5].

What is called GI50 is the concentration that inhibits growth by half. A lower GI50 goes with more potent growth inhibition.
